The values below come from patent publication US20100003332A1, “Process For Preparing Powder Comprising Nanoparticles of Sparingly Soluble Drug” (Amorepacific Corporation, priority 2006, published 2010).

Like-named read-outs stand apart in the source and are kept apart here.

Series [1] can be described thus: Bioavailability test: blood drug concentration after oral administration of suspensions to rats. The settings on record: rat, suspension in distilled water, male rats fasted for 12 hours. The format is in vivo. The procedure:
In order to investigate the bioavailability of the powder according to the present invention, cilostazol powder prepared in Example 6 and unprocessed cilostazole as a control group (average particle size: 3 to 5 μm, Dongwoo Co., Ltd.) were suspended in distilled water, respectively. The suspensions having equivalent amounts of cilostazole were each orally administered to three male rats fasted for 12 hours. Blood samples were taken from the ophthalmic vein of the rats immediately after the administration, and 0.5, 1, 2, 4 and 7 hours after the administration to determined the blood drug concentration changes with time. Also the maximum blood concentration (Cmax, μg/ml) and the area under the blood drug concentration-time curve (AUC, μg*hr/ml) were calculated, and the results are shown in Table 8.

Series [2] is described as follows: Particle size of cilostazol (lactose/SLS ratio) after redispersion of slurry or dried powder in distilled water, laser scattering particle size analyzer. Format: physicochemical. On the procedure: 0.45 g of cilostazol (Dongwoo Co., Ltd.) and 0.15 g of hydroxypropyl cellulose were added to 5.1 ml of the saturated aqueous solution of lactose. […] The slurry mixture thus obtained was high-pressure filtered (pressure: 640 mmHg) using a sound pressure and freeze dried for 1 day to obtain powders.

Assay in series [3]: as above
Format: physicochemical. Particulars: Lactose 225 g, SLS 225 g.

Series [4] can be described thus: Particle size of active ingredient (cilostazol, fenofibrate, itraconazole) powders redispersed in distilled water, laser scattering particle size analyzer. Format: physicochemical. The settings on record: powder redispersed in aqueous solution, surface stabilizer HPC, dispersion agent SUCROSE. On the procedure: 1.2 g of each of the active ingredient, 0.2 g of hydroxypropyl cellulose and 1.2 g of sucrose were added to 6.1 g of distilled water containing a saturated solution of sucrose, an appropriate amount of zirconia bead having the average particle size of 1 mm were added thereto, and the mixture was roll ground at a rate of 108 rpm for 5 days. The slurry mixture thus obtained was screened to remove the beads, and the residue was high-pressure filtered (pressure: 640 mmHg) using the sound pressure, followed by vacuum drying to obtain powders.

The procedure of series [5]: 0.15 g of naproxen (TCI Chem) having an average particle size of 3 to 10 μm, 0.15 g of lactose and 0.03 g of hydroxypropy cellulose (HPC) were added to 3.4 ml of a saturated aqueous solution of lactose, and the mixture was wet ground using an oscillating mill at the room temperature for 30 minutes. The slurry mixture thus obtained was centrifuged at 4° C., 15,000 rpm for 30 minutes, and the residue in the bottom layer was vacuum dried for 24 hours to obtain a powder.
In the above process, the averaged particle size of naproxen particles was measured for 1) a test solution obtained by redispering 0.02 ml of the slurry mixture obtained after wet grinding in 10 ml of distilled water, and 2) an another test solution obtained by redispersing 0.01 g of the dried powder in 8 ml of distilled water, by using a laser scattering particle size analyzer (LA-910, Horiba). The redispersion was conducted by shaking the mixture with a hand.
Additional powders were prepared by repeating the above-mentioned procedure except for using sucrose, mannitol, trehalose, sorbitol and xylitol, respectively, instead of lactose, and naproxen particle sizes were measured by the same procedure.

Series [6] in a line: Particle size of tacrolimus in redispersed powder with and without ultrasonic irradiation, laser scattering particle size analyzer. The format is physicochemical. The settings on record: lactose. The procedure: 0.01 g of each of the powders thus obtained was redispersed using an ultrasonic irradiation (frequency: 39 kHz). The particle of the tacrolimus was measured by using a laser scattering particle size analyzer (LA0910, Horiba) for each of the test solution with and without the ultrasonic irradiation, and the results are shown in Table 4.

Setting [7] is: drying powder redispersed, Lactose 90 g, SLS 360 g.
The mark [8] stands for this setting: drying powder redispersed, Lactose 360 g, SLS 90 g.
The mark [9] stands for this setting: slurry mixture redispersed after wet grinding, Lactose 90 g, SLS 360 g.
Where [10] appears, read: slurry mixture redispersed after wet grinding, Lactose 225 g, SLS 225 g.
[11] abbreviates: slurry mixture redispersed after wet grinding, Lactose 360 g, SLS 90 g.
Where [12] appears, read: HPC, amount of lactose 20% by weight of active ingredient.
Where [13] appears, read: HPC, amount of lactose 60% by weight of active ingredient.
The mark [14] stands for this setting: HPC, amount of lactose 100% by weight of active ingredient.
The mark [15] stands for this setting: HPC, amount of lactose 140% by weight of active ingredient.
Where [16] appears, read: HPC, amount of lactose 180% by weight of active ingredient.
[17] abbreviates: dispersion agent Lactose, surface stabilizer PVP 10,000.
The mark [18] stands for this setting: dispersion agent Lactose, surface stabilizer PVP 29,000.
Setting [19] is: dispersion agent Lactose, surface stabilizer PVP 55,000.
Where [20] appears, read: dispersion agent Lactose, surface stabilizer PVP 130,000.
Setting [21] is: dried powder redispersed in distilled water, surface stabilizer HPC, dispersion agent Lactose.
Where [22] appears, read: dried powder redispersed, HPC, dispersion agent Mannitol.
Setting [23] is: dried powder redispersed, HPC, dispersion agent Sorbitol.
Where [24] appears, read: dried powder redispersed, HPC, dispersion agent Sucrose.
Setting [25] is: dried powder redispersed, HPC, dispersion agent Trehalose.
Where [26] appears, read: dried powder redispersed, HPC, dispersion agent Xylitol.

With `O=C1CCc2cc(OCCCCc3nnnn3C3CCCCC3)ccc2N1` [Cilostazol raw material, cilostazol], in series [1] (read-out: Cmax (maximum blood concentration)), the Cmax is 150 ± 80 ng/mL. The AUC in series [1] (samples to 7 hours, read-out: AUC (area under the blood drug concentration-time curve)) worked out at 580 ± 90 ng·h/mL.

`O=C1CCc2cc(OCCCCc3nnnn3C3CCCCC3)ccc2N1` [Cilostazol, cilostazol]: the Average particle size was determined as 350 nm in series [2] (setting [7]); 360 nm in series [2] (drying powder redispersed, Lactose 225 g, SLS 225 g); 200 nm in series [2] (setting [8]); 340 nm in series [2] (setting [9]); 340 nm in series [2] (setting [10]); 190 nm in series [2] (setting [11]). Also, the Average particle size in series [4] is reported as 170 nm. Moreover, the Particle size range D10 in series [2] (setting [7]) was 230 nm; in series [2] (setting [8]), 150 nm; in series [2] (setting [9]), 230 nm; in series [2] (setting [10]), 230 nm; in series [2] (setting [11]), 140 nm; in series [3] (drying powder redispersed), 240 nm. For the same compound, the Particle size range D50 came to 340 nm in series [2] (setting [7]); 200 nm in series [2] (setting [8]); 340 nm in series [2] (setting [9]); 180 nm in series [2] (setting [11]); 350 nm in series [3] (drying powder redispersed); 330 nm in series [3] (slurry mixture redispersed after wet grinding). The Particle size range D90 is 390 nm in series [2] (setting [7]); 270 nm in series [2] (setting [8]); 470 nm in series [2] (setting [9]); 470 nm in series [2] (setting [10]); 250 nm in series [2] (setting [11]); 490 nm in series [3] (drying powder redispersed). In addition, the “Range of particle size” value in series [4] (in nm) was 120~228.

Consider `COc1ccc2cc([C@H](C)C(=O)O)ccc2c1` [Naproxen, naproxen], for which the Average particle size was 3,025 nm in series [5] (setting [12]); 500 nm in series [5] (setting [13]); 164 nm in series [5] (setting [14]); 391 nm in series [5] (setting [15]); 208 nm in series [5] (setting [16]); 16,800 nm in series [5] (setting [17]). Further, the Average particle size in series [5] (setting [18]) was 156.9 nm; in series [5] (setting [19]), 192.4 nm; in series [5] (setting [20]) it was 275.8 nm; in series [5] (setting [21]) it was 164.1 nm; in series [5] (dried powder redispersed in distilled water, surface stabilizer HPC, dispersion agent Lactose, listed as naproxen), “about 164 nm”; in series [5] (setting [22]), 450 nm. For the same compound, the Average particle size in series [5] (setting [23]) was found to be 413.6 nm; in series [5] (setting [24]) it was 297.1 nm; in series [5] (setting [25]), 241.6 nm; in series [5] (setting [26]) it was 637.9 nm. For the same compound, the “Particle Size (D10~D90)” value in series [5] (setting [12]) is listed as 154~4,292 nm; in series [5] (setting [13]), 339~629 nm; in series [5] (setting [14]), 40~260 nm; in series [5] (setting [15]) it was 109~316 nm; in series [5] (setting [16]), 108~310 nm; in series [5] (setting [17]) it was 868.3~507.1 nm. In addition, the “Particle Size (D10~D90)” value is recorded as 95.9~208.7 nm in series [5] (setting [18]); 120.8~250.3 nm in series [5] (setting [19]); 150.6~417.5 nm in series [5] (setting [20]); 40.3~259.6 nm in series [5] (setting [21]); 319.8~564.6 nm in series [5] (setting [22]); 280.4~532.7 nm in series [5] (setting [23]). Besides, the “Particle Size (D10~D90)” value in series [5] (setting [24]) was 192.9~393.9 nm; in series [5] (setting [25]), 162.8~312.5 nm; in series [5] (setting [26]) it was 291.3~675.9 nm. Moreover, in series [5] (slurry mixture after wet grinding redispersed in distilled water, HPC, lactose), the “average particle size of naproxen particles” value is reported as “about 133 nm”.

With `C=CC[C@@H]1/C=C(\C)C[C@H](C)C[C@H](OC)[C@H]2O[C@@](O)(C(=O)C(=O)N3CCCC[C@H]3C(=O)O[C@H](/C(C)=C/[C@@H]3CC[C@@H](O)[C@H](OC)C3)[C@H](C)[C@@H](O)CC1=O)[C@H](C)C[C@@H]2OC` [tacrolimus], the “Particle size according to the ultrasonic irradiation time” value is recorded as 4,980 nm in series [6] (surface stabilizer Hydroxyproply cellulose, 0 minute ultrasonic irradiation); 220 nm in series [6] (surface stabilizer Hydroxyproply cellulose, 1 minute ultrasonic irradiation (39 kHz)); 510 nm in series [6] (surface stabilizer Poloxamer 407, 0 minute ultrasonic irradiation); 420 nm in series [6] (surface stabilizer Poloxamer 407, 1 minute ultrasonic irradiation (39 kHz)); 1,561 nm in series [6] (surface stabilizer Polyvinylpyrrolidone, 0 minute ultrasonic irradiation); 610 nm in series [6] (surface stabilizer Polyvinylpyrrolidone, 1 minute ultrasonic irradiation (39 kHz)).
